Where two headings read alike, the source gives them in different places.
Key:
[1] = ADC stability study: % aggregates by SEC after incubation at 37° C. for 168 h; format: physicochemical
Experimental: Size Exclusion Chromatography: Size exclusion chromatography (SEC) was performed for quality control of each ADCs by measuring monomer percentage of the conjugate. The analysis was performed on analytical column Superdex 200 Increase 5/150 GL (GE Healthcare, 28990945) in isocratic conditions 100% PBS pH7.4 (Sigma Life Science, P3813, 10PAK), flow 0.45 mI/min for 12 minutes. The % aggregate fraction of the conjugate sample was quantified based on the peak area absorbance at 280 nm. Its calculation was based on the ratio between the high molecular weight eluent at 280 nm divided by the sum of peak area absorbance at the same wavelength of the high molecular weight and monomeric eluents multiplied by 100.
Characterization of the exemplary ADCs is summarized in Table 13 (coupling, LC-MS method, OAR, aggregation status, ADO stability and yield). The average OAR values were determined using the above LC-MS methods and the percentage of aggregates was measured by size exclusion chromatography (SEC) during the quality control of the ADO and after the stability study (incubation at 37° C. for 168 h).

H1650 cells = test: CellTiterGlo (CTG) cell viability, 3D, 120 h, H1650 (Example 8); format: cell-based, human
ALL-SIL cells = test: CellTiterGlo (CTG) cell viability, 72 h, ALL-SIL (Example 8); format: cell-based
Experimental: ALL-SIL cells were cultivated in RPMI supplemented with 20% heat inactivated fetal bovine serum, penicillin (100 IU/ml), streptomycin (100 μg/ml) and L-glutamine (2 mM). Cell lines were cultured at 37° C. in a humidified atmosphere containing 5% CO2. Cells were seeded in 96 well clear bottom plates (96 well clear-bottom, white, Corning reference 3903) and exposed to the payloads or ADCs for 72 h (serially diluted; 9 concentrations each, triplicates). Effects of payloads or ADCs on cell viability were assessed after 3 days of incubation at 37° C./5% CO2 by quantification of cellular ATP levels using CellTiterGlo at 75 μL reagent/well. All the conditions were tested in triplicates. Luminescence was quantified on a multipurpose plate reader. IC50s were calculated using standard four-parametric curve fitting. […] Each experiment was performed at least twice, with results being reproducible.

DND-41 cells = test: CellTiterGlo (CTG) cell viability, 72 h, DND-41 (Example 8); format: cell-based
Experimental: DND-41 cells were cultivated in RPMI supplemented with 10% heat inactivated fetal bovine serum, penicillin (100 IU/ml), streptomycin (100 μg/ml) and L-glutamine (2 mM). Cell lines were cultured at 37° C. in a humidified atmosphere containing 5% CO2. […] Effects of payloads or ADCs on cell viability were assessed after 3 days of incubation at 37° C./5% CO2 by quantification of cellular ATP levels using CellTiterGlo at 75 μL reagent/well. All the conditions were tested in triplicates. Luminescence was quantified on a multipurpose plate reader. IC50s were calculated using standard four-parametric curve fitting.

[2] = H1650 3D, experiment n1, read-out: H1650 3D CTG IC50 n1
[3] = H1650 3D, experiment n2, read-out: H1650 3D CTG IC50 n2
[4] = H1650 3D, mean of n1 and n2, read-out: H1650 3D CTG IC50 Mean of n1 and n2
[5] = experiment n1, read-out: ALLSIL CTG 72 h IC50 nM n1
[6] = experiment n2, read-out: ALLSIL CTG 72 h IC50 nM n2
[7] = mean of n1 and n2, read-out: ALLSIL CTG 72 h IC50 nM Mean of n1 and n2
[8] = DND41, experiment n1, read-out: DND41 CTG 72 h IC50 nM n1
[9] = DND41, experiment n2, read-out: DND41 CTG 72 h IC50 nM n2
[10] = DND41, mean of n1 and n2, read-out: DND41 CTG 72 h IC50 nM Mean of n1 and n2
[11] = Homo sapiens, NCI-H1650, H1650 3D, experiment n1, read-out: H1650 3D CTG IC50 n1
[12] = Homo sapiens, NCI-H1650, H1650 3D, experiment n2, read-out: H1650 3D CTG IC50 n2
[13] = Homo sapiens, NCI-H1650, H1650 3D, mean of n1 and n2, read-out: H1650 3D CTG IC50 Mean of n1 and n2

| IC50 (H1650 cells; [11]) [nM] | IC50 (H1650 cells; [12]) [nM] | IC50 (H1650 cells; [13]) [nM] | Structure (SMILES) | Stab w1 +37° C. % Agg (by SEC) [1] [%] | IC50 (H1650 cells; [2]) [nM] | IC50 (H1650 cells; [3]) [nM] | IC50 (H1650 cells; [4]) [nM] | IC50 (ALL-SIL cells; [5]) [nM] | IC50 (ALL-SIL cells; [6]) [nM] | IC50 (ALL-SIL cells; [7]) [nM] | IC50 (DND-41 cells; [8]) [nM] | IC50 (DND-41 cells; [9]) [nM] | IC50 (DND-41 cells; [10]) [nM] |
| --- | --- | --- | --- | --- | --- | --- | --- | --- | --- | --- | --- | --- | --- |
|  |  |  | Cc1cc(N(C)c2ccc(-c3cnn(C[C@]45C[C@]6(C)C[C@](C)(C4)C[C@@](OCCN(CCCO)C(=O)OCc4ccc(NC(=O)[C@H](CCCNC(N)=O)CC(=O)[C@@H](NC(=O)CCOCCN7C(=O)CC(C)C7=O)C(C)C)cc4)(C6)C5)c3C)c(C(=O)O)n2)nnc1Nc1nc2ccccc2s1 (mixture of isomers) [Ab C - L9C-P26] | 3 | 0.12 | 0.11 | 0.12 |  |  |  |  |  |  |
|  |  |  | Cc1c(Nc2nc3ccccc3s2)nnc2c1CCCN2c1nc(C(=O)[O-])c(CCCOc2ccc(C#CC[N+](C)(C)Cc3ccc(NC(=O)[C@H](CCCNC(N)=O)NC(=O)[C@@H](NC(=O)CCOCCN4C(=O)CC(C)C4=O)C(C)C)cc3)cc2F)[nH]1 (stereo partly shown) [Ab C - L9A-P1] | 6 | 0.49 | 0.33 | 0.41 |  |  |  |  |  |  |
|  |  |  | Cc1c(Nc2nc3ccccc3s2)nnc2c1CCCN2c1nc(C(=O)[O-])c(CCCOc2ccc(C#CC(C)N3CC[N+](C)(Cc4ccc(NC(=O)[C@H](CCCNC(N)=O)NC(=O)[C@@H](NC(=O)CCOCCN5C(=O)CC(C)C5=O)C(C)C)cc4)CC3)cc2F)s1 (stereo partly shown) [Ab C - L9A-P8] | 7 | 0.14 | 0.3 | 0.22 |  |  |  |  |  |  |
|  |  |  | Cc1cc(N(C)c2nc(C(=O)[O-])c(CCCOc3ccc(C#CC(C)[N+](C)(C)Cc4ccc(NC(=O)[C@H](CCCNC(N)=O)NC(=O)[C@@H](NC(=O)CCOCCN5C(=O)CC(C)C5=O)C(C)C)cc4)cc3F)s2)nnc1Nc1nc2ccccc2s1 (stereo partly shown) [Ab C - L9A-P11] | 2.4 | 0.5 | 0.5 | 0.5 |  |  |  |  |  |  |
|  |  |  | CC[N+](C)(CC#Cc1ccc(OCCCc2sc(N3CCCc4c3nnc(Nc3nc5ccccc5s3)c4C)nc2C(=O)O)c(F)c1)Cc1ccc(NC(=O)[C@H](CCCNC(N)=O)NC(=O)[C@@H](NC(=O)CCOCCN2C(=O)CC(C)C2=O)C(C)C)cc1 (stereo partly shown) [Ab C - L9A-P13] | 0.2 | 0.9 | 0.7 | 0.8 |  |  |  |  |  |  |
|  |  |  | CC[N+](CC)(CC#Cc1ccc(OCCCc2sc(N3CCCc4c3nnc(Nc3nc5ccccc5s3)c4C)nc2C(=O)[O-])c(F)c1)Cc1ccc(NC(=O)[C@H](CCCNC(N)=O)NC(=O)[C@@H](NC(=O)CCOCCN2C(=O)CC(C)C2=O)C(C)C)cc1 (stereo partly shown) [Ab C - L9A-P14] | 7 | 1.3 | 0.4 | 0.85 |  |  |  |  |  |  |
|  |  |  | Cc1c(NC2Nc3ccccc3S2)nnc2c1CCCN2c1nc(C(=O)[O-])c(CCCOc2ccc(C#CC[N+]3(Cc4ccc(NC(=O)[C@H](CCCNC(N)=O)NC(=O)[C@@H](NC(=O)CCCCCN5C(=O)CC(C)C5=O)C(C)C)cc4)CCCCC3)cc2F)s1 (stereo partly shown) [Ab C - L9A-P18] | 3 | 1.2 | 1.25 | 1.23 |  |  |  |  |  |  |
|  |  |  | C=C(C)CCCC[C@](C)(CC(=C)[C@@](C)(CC(=C)CCCCCC1C(=C)CC(C)C1=C)C(C)C)C(=C)Cc1ccc(CC(C)(C)CCC[C@]23C[C@]4(C)C[C@](C)(C2)C[C@@](CC2C=CC(c5ccc(C6CCCc7c6ccc(CC6=Cc8ccccc8C6)c7C)cc5C(=C)C)=C2C)(C4)C3)cc1 (stereo partly shown) [Ab C - L9A-P27] | 16 | 0.3 | 0.22 | 0.26 |  |  |  |  |  |  |
|  |  |  | CC(=O)CCCC[C@](C)(CC(=O)[C@@](C)(CC(=O)CCCCCC1C(=O)CC(C)C1=O)C(C)C)C(=O)Cc1ccc(CC(C)(C)CC#Cc2ccc(CCCCC3=C(C(C)=O)C=C(C4CCCc5c4ccc(CC4=Cc6ccccc6C4)c5C)C3)cc2)cc1 (stereo partly shown) [Ab C - L9A-P28] | 15 | 0.21 | 0.2 | 0.21 |  |  |  |  |  |  |
|  |  |  | Cc1c(Nc2nc3ccccc3s2)nnc2c1CCCN2c1nc(C(=O)O)c(CCCOc2ccc(C#CCN(CCN(C)C)C(=O)OCc3ccc(NC(=O)[C@H](CCCNC(N)=O)NC(=O)[C@@H](NC(=O)CCOCCN4C(=O)CC(C)C4=O)C(C)C)cc3)cc2F)s1 (stereo partly shown) [Ab C - L9C-P12] | 4 | 0.6 | 0.9 | 0.75 |  |  |  |  |  |  |
| 1.8 | 3 | 2.4 | CCN(C)CC#Cc1ccc(OCCCc2sc(N3CCCc4c3nnc(Nc3nc5ccccc5s3)c4C)nc2C(=O)O)c(F)c1 [P13, 2-[3-(1,3-Benzothiazol-2-ylamino)-4-methyl-6,7-dihydro-5H-pyrido[2,3-c]pyridazin-8-yl]-5-[3-[4-[3-[ethyl(methyl)amino]prop-1-ynyl]-2-fluoro-phenoxy]propyl]thiazole-4-carboxylic acid] |  |  |  |  | 2.6 | 1.44 | 2.02 | 11.8 | 12.1 | 11.9 |
| 3.15 | 5.3 | 4.23 | Cc1c(Nc2nc3ccccc3s2)nnc2c1CCCN2c1nc(C(=O)O)c(CCCOc2ccc(C#CCN3CCNCC3)cc2F)s1 [P17, 2-[3-(1,3-Benzothiazol-2-ylamino)-4-methyl-6,7-dihydro-5H-pyrido[2,3-c]pyridazin-8-yl]-5-[3-[2-fluoro-4-(3-piperazin-1-ylprop-1-ynyl)phenoxy]propyl]thiazole-4-carboxylic acid] |  |  |  |  | 0.13 | 0.26 | 0.2 | 0.4 | 0.7 | 0.55 |
| 2.89 | 1.43 | 2.16 | Cc1c(Nc2nc3ccccc3s2)nnc2c1CCCN2c1ccc(-c2cnn(C[C@]34C[C@]5(C)C[C@](C)(C3)C[C@@](OCCNCC[C@H](O)CO)(C5)C4)c2C)c(C(=O)O)n1 [P19, 6-{3-[(1,3-benzothiazol-2-yl)amino]-4-methyl-6,7-dihydropyrido[2,3-c]pyridazin-8(5H)-yl}-3-(1-{[3-(2-{[(3S)-3,4-dihydroxybutyl]amino}ethoxy)-5,7-dimethyladamantan-1-yl]methyl}-5-methyl-1H-pyrazol-4-yl)pyridine-2-carboxylic acid] |  |  |  |  | 4.02 | 3.5 | 3.76 | 10.8 | 7.2 | 9 |
| 0.36 | 0.5 | 0.43 | Cc1c(Nc2nc3ccccc3s2)nnc2c1CCCN2c1ccc(-c2cnn(CC34CC5(C)CC(C)(C3)CC(OCCN3CCN(C)CC3)(C5)C4)c2C)c(C(=O)O)n1 [P20, 6-[3-(1,3-benzothiazol-2-ylamino)-4-methyl-6,7-dihydro-5H-pyrido[2,3-c]pyridazin-8-yl]-3-[1-[[3,5-dimethyl-7-[2-(4-methylpiperazin-1-yl)ethoxy]-1-adamantyl]methyl]-5-methyl-pyrazol-4-yl]pyridine-2-carboxylic acid] |  |  |  |  | 0.02 | 0.08 | 0.05 | 0.38 | 0.24 | 0.31 |
| 0.77 | 0.79 | 0.78 | Cc1c(Nc2nc3ccccc3s2)nnc2c1CCCN2c1ccc(-c2cnn(C[C@]34C[C@]5(C)C[C@](C)(C3)C[C@@](OCCNCCCCO)(C5)C4)c2C)c(C(=O)O)n1 [P22, 6-[3-(1,3-benzothiazol-2-ylamino)-4-methyl-6,7-dihydro-5H-pyrido[2,3-c]pyridazin-8-yl]-3-[1-[[3-[2-(4-hydroxybutylamino)ethoxy]-5,7-dimethyl-1-adamantyl]methyl]-5-methyl-pyrazol-4-yl]pyridine-2-carboxylic acid] |  |  |  |  | 0.26 | 0.5 | 0.38 | 0.45 | 0.26 | 0.36 |

Source: patent US20240269304A1, “BCL-XL INHIBITOR ANTIBODY-DRUG CONJUGATES AND METHODS OF USE THEREOF” (Novartis AG, priority 2020, published 2024)
